Reference: patent publication US5684026A, “Aminocyclopentane derivative” (priority 1994, dated 1997)
pIC50, pKi: −log10 of the molar value. Where two headings read alike, the source gives them in different places.

How the values were obtained:
Assay type in all cases: biochemical
[1] = biological target: T1, α-Glucosidase (Baker's yeast, EC 3.2.1.20) (Saccharomyces cerevisiae, UniProt P53341); experiment: α-Glucosidase enzyme inhibition assay (p-nitrophenyl α-D-glucopyranoside); details: for inhibitory activity against α-glucosidase (in words): compared with deoxynojirimycin, summary of Tables 1 and 2; for IC50: pH 6.8, 37° C., 30 minutes, read-out: IC50 (M) α-Glucosidase (Baker's yeast)
T1 construct: purchased Sigma; host or cells: Baker's yeast
T1 sequence (P53341 whole entry): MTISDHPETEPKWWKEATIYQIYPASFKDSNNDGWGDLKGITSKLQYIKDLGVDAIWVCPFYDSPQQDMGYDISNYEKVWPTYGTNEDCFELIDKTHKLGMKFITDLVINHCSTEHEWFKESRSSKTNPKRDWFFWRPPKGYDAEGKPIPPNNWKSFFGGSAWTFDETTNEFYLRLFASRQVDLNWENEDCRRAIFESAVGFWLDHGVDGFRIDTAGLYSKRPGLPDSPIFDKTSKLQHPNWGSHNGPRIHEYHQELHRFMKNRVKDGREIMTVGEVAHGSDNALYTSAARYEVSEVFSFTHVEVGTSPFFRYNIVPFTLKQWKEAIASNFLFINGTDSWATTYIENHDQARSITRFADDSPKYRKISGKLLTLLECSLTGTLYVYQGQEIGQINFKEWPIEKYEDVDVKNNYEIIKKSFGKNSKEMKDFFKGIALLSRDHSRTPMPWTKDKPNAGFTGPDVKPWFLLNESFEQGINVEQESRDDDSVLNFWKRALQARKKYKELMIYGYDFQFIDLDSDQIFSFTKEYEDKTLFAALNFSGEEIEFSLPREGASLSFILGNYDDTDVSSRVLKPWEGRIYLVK
Experimental: (§1) By using a 96-well microplate, the absorbance (at 405 nm) of liberated p- or o-nitrophenol was measured with a microplate reader (MPR-4Ai, manufactured by Tosoh Corporation).
(§2) Incubation was carried out at 37° C. by using a natural incubator (Compact NIB-10, manufactured by Iwaki Glass Co., Ltd.).
(§3) The enzymes employed herein [α-glucosidase (Baker's yeast), β-glucosidase (Almonds), α-galactosidase (E. coli), β-galactosidase (E. coli) and β-galactosidase (Bovine Liver)] were all purchased from Sigma.
(§4) The substrates (p- or o-nitrophenylglycoside) of these enzymes were all purchased from Sigma.
1) α-Glucosidase (Baker's yeast, EC 3.2.1.20) [described in H. Halvorson and L. Ellias, Biochim. Biophys. Acta, 30, 28-40 (1958)]
Into each well were introduced an aqueous solution of a sample (1 μl), a 0.66 mM solution of p-nitrophenyl α-D-glucopyranoside in a buffer (98 μl) and a (0.4 mg/ml) enzyme solution in the buffer (1 μl) to give a total volume of 100 μl. After incubating at 37° C. for 30 minutes, the reaction was ceased by adding a 1M aqueous solution of sodium carbonate (100 μl). Then the absorbance (A405) of p-nitrophenol liberated by this enzyme reaction was measured. To give the blank absorbance (Ablank), the sample (1 μl) and the substrate (99 μl) were incubated in the same manner and an aqueous solution of sodium carbonate (100 μl) was added followed by the measurement of the absorbance. […] The sample at each concentration, the blank and the control were treated each in two wells at the same time. As the buffer, a 0.1M phosphate buffer solution (pH 6.8, prepared from KH2 PO4 and K2 HPO4) was employed.

[2] = biological target: T2, β-Galactosidase (E. Coli, EC. 3.2.1.23) (Escherichia coli, UniProt P00722); experiment: β-Galactosidase (E. coli) enzyme inhibition assay (o-nitrophenyl β-D-galactopyranoside)
T2 construct: purchased Sigma; host or cells: E. coli
T2 sequence (P00722 2-1024 limits assumed): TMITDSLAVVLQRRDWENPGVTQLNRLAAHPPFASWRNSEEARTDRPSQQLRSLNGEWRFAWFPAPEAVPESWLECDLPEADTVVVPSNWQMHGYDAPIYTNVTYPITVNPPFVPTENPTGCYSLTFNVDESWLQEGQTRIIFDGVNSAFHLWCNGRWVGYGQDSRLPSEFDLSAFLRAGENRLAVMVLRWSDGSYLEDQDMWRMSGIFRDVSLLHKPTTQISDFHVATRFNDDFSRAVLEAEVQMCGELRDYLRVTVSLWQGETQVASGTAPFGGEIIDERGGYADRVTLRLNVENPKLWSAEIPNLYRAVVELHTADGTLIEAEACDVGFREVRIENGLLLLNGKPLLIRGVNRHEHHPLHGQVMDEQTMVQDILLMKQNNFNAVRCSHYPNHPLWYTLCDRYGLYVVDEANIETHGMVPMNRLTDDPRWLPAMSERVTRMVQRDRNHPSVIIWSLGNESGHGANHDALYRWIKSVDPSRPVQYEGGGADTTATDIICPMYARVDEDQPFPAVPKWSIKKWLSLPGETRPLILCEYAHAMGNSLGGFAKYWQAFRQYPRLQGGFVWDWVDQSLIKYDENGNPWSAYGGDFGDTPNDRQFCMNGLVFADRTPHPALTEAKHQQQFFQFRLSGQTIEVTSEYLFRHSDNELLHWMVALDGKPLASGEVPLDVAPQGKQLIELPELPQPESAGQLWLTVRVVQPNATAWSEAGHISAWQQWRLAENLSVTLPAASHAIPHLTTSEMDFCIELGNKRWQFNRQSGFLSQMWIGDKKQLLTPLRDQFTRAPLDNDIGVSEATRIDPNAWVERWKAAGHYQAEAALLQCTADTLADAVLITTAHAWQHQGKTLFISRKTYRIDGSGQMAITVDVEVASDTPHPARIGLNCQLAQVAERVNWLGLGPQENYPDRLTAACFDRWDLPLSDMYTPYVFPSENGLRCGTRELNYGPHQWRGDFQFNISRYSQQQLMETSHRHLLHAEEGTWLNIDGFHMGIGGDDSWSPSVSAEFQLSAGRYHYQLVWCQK
Experimental: as §1, §3, §4
4) β-Galactosidase (E. Coli, EC. 3.2.1.23) [described in G. R. Craven, E. Steers, Jr. and C. B. Anfinsen, J. Biol. Chem., 240, 2468-2477 (1965)]
Into each well were introduced an aqueous solution of a sample (2 μl), a buffer (153 μl), a 20 mM solution of o-nitrophenyl β-D-galactopyranoside in a buffer (25 μl), a 100 mM 2-mercaptoethanol (10 μl) and a (10 μg/ml) enzyme solution in the buffer (10 μl) to give a total volume of 200 μl. After incubating at room temperature (20°-30° C.) for 30 minutes, the absorbance (A405) of o-nitrophenol liberated by this enzyme reaction was measured. To give the blank absorbance (Ablank), the sample (2 μl), the substrate (25 μl), the buffer solution (163 μl) and 2-mercaptoethanol (10 μl) were incubated in the same manner followed by the measurement of the absorbance. To give the control absorbance (Acontrol), on the other hand, water (2 μl), the substrate (25 μl), the buffer solution (153 μl), 2-mercaptoethanol (10 μl) and the enzyme solution (10 μl) were incubated in the same manner followed by the measurement of the absorbance. A 50 mM phosphate buffer solution (pH 7.3, prepared from KH2 PO4 and K2 HPO4, containing 1.3 mM of MgCl2) was employed as the buffer for the enzyme reaction. The IC50 was determined in the same manner as employed in the case of α-glucosidase.

[3] = biological target: T3, α-glucosidase I (Baker's yeast) (Saccharomyces cerevisiae, UniProt P53008); experiment: Inhibitory activity on α-glucosidase I (Ki)
T3 construct: made in house; host or cells: Baker's yeast (native enzyme, prepared by the cited method)
T3 sequence (P53008 25-833 limits assumed): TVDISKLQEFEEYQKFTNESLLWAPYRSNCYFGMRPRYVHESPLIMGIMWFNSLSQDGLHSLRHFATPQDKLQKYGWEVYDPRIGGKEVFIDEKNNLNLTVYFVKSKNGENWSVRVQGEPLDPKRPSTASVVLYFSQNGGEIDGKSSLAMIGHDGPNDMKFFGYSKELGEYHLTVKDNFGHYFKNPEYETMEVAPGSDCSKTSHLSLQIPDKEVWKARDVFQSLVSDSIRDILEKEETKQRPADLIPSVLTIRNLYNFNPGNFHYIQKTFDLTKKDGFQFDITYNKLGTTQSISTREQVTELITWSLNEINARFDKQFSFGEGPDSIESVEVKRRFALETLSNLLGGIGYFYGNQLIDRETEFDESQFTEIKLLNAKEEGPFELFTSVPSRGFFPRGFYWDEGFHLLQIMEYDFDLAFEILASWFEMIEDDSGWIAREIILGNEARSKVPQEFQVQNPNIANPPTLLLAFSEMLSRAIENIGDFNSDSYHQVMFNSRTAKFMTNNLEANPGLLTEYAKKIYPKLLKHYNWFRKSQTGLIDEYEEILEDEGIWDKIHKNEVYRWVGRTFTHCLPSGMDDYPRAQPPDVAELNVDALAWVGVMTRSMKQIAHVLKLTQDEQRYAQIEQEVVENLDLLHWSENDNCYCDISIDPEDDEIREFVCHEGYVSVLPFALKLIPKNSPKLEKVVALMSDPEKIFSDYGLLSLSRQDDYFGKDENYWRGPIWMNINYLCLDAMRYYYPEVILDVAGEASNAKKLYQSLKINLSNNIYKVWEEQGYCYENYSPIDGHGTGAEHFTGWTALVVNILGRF
Experimental: The α-glucosidase I (Baker's yeast) and its substrate (α-D-Glcl→2α-D-Glcl→3α-D-Glc-O(CH2)6 COOCH3) employed herein were prepared in accordance with the method of I. Neverova et al., Anal. Biochem., 222, 190-196 (1994).
The following measurements were performed by the methods described in this literature.
Namely, 25 μl of a buffer solution containing α-glucosidase I was added to a microtube containing the above-mentioned sample and the substrate (α-D-Glcl→2α-D-Glcl→3α-D-Glc-O(CH2)6 COOCH3). After incubating at 37° C. for 1 hour, a 1.25M tris hydrochloride buffer solution (pH 7.6, 25 μl) was added to thereby cease .the reaction. Then the reaction mixture was transferred onto a microplate followed by the addition of 250 μl of a reaction buffer solution [developing solution; 1M tris hydrochloride buffer solution (pH 7.2) containing glucose oxidase (5 units/ml, manufactured by Sigma), horseradish peroxidase (1 purpurogallin units, manufactured by Sigma) and o-dianisidine dihydrochloride (40 μg/ml)]. Then the mixture was incubated at 37° C. for 30 minutes or until an increase in the absorbance attained a plateau. Then the absorbance (A450-650) of the o-dianisidine formed and oxidized by this enzyme reaction was measured. As a blank, the above reaction was repeated but adding neither the above-mentioned sample nor substrate and the absorbance was measured. Also, the above-mentioned reaction buffer solution was added to D-glucose of a known concentration and the resulting mixture was incubated followed by the measurement of the absorbance to thereby examine a relationship between D-glucose concentration and absorbance. Each measurement was effected in two wells at the same time.
Based on the above-mentioned relationship between D-glucose concentration and absorbance, the amount of glucose liberated from the substrate due to the enzyme reaction of α-glucosidase I in the presence of the sample was determined. From the result thus obtained, Km was determined and then Ki was determined from the sample amount and the Km value.

[4] = biological target: β-Glucosidase (Almonds, EC 3.2.1.21); experiment: β-Glucosidase enzyme inhibition assay (p-nitrophenyl β-D-glucopyranoside); details: for IC50: pH 5.0, 37° C., 45 minutes
Experimental: as §1, §2, §3, §4
2) β-Glucosidase (Almonds, EC 3.2.1.21) [described in A. Kobayashi, Agr. Biol. Chem., 26, 203-207 (1962)]
Into each well were introduced an aqueous solution of a sample (1 μl), a 0.33 mM solution of p-nitrophenyl β-D-glucopyranoside in a buffer (98 μl) and a (0.4 mg/ml) enzyme solution in the buffer (1 μl) to give a total volume of 100 μl. After incubating at 37° C. for 45 minutes, the reaction was ceased by adding a 1M aqueous solution of sodium carbonate (100 μl). Then the absorbance (A405) of p-nitrophenol liberated by this enzyme reaction was measured. To give the blank absorbance (Ablank), the sample (1 μl) and the substrate (99 μl) were incubated in the same manner and an aqueous solution of sodium carbonate (100 μl) was added followed by the measurement of the absorbance. […] As the buffer, a 0.1M acetate buffer solution (pH 5.0, prepared from NaOAc and AcOH) was employed. The IC50 was determined in the same manner as employed in the case of α-glucosidase.

[5] = test system: α-Galactosidase (E. Coli, EC. 3.2.1.22); experiment: α-Galactosidase enzyme inhibition assay (p-nitrophenyl α-D-galactopyranoside); details: pH 6.5, room temperature, 15 minutes
Experimental: as §1, §3, §4
3) α-Galactosidase (E. Coli, EC. 3.2.1.22) [described in H. Suzuki, S-C. Li and Y-T. Li, J. Biol. Chem., 245, 781-786 (1970)]
Into each well were introduced an aqueous solution of a sample (1 μl), a buffer (74 μl), a 9.9 mM solution of p-nitrophenyl α-D-galactopyranoside in a buffer (20 μl) and a (50 μg/ml) enzyme solution in the buffer (5 μl) to give a total volume of 100 μl. After incubating the resulting mixture at room temperature (20°-30° C.) for 15 minutes, the reaction was ceased by adding a 0.2M borate buffer solution (pH 9.8, prepared from NaOH and H3 BO3, 100 μl). Then the absorbance (A405) of p-nitrophenol liberated by this enzyme reaction was measured. To give the blank absorbance (Ablank), the sample (1 μl), the substrate (20 μl) and the buffer solution (79 μl) were incubated in the same manner and the 0.2M borate buffer solution (100 μl) was added followed by the measurement of the absorbance. To give the control absorbance ([…]), on the other hand, water (1 μl), the substrate (20 μl), the buffer solution (74 μl) and the enzyme solution (5 μl) were incubated in the same manner and the borate buffer solution (100 μl) was added followed by the measurement of the absorbance. A 0.1M phosphate buffer solution (pH 6.5, prepared from KH2 PO4 and K2 HPO4) was employed as the buffer for the enzyme reaction. The IC50 was determined in the same manner as employed in the case of α-glucosidase.

[6] = α-glucosidase I, substrate 0.25-4.0 mM, 37° C., 1 hour, read-out: Ki

## N[C@@H]1[C@H](O)[C@@H](O)[C@H](O)[C@@]1(O)CO [d, 1L-(1,2,4,5/3)-5-amino-1C-hydroxymethyl-1,2,3,4-cyclopentanetetraol]
[1]
  pIC50: 6.40
  inhibitory activity against α-glucosidase (in words): remarkably strong inhibitory activities
[2]; pH 7.3, room temperature, 30 minutes, read-out: IC50 (M) β-Galactosidase (E. coli)
  IC50: > 0.0003 M
[3]; [6]
  pKi: 3.52

## CCCCN(CCCC)[C@@H]1[C@H](O)[C@@H](O)[C@H](O)[C@@]1(O)CO [d-1, 1L-(1,2,4,5/3)-5-dibutylamino-1-hydroxymethyl-1,2,3,4-cyclopentanetetraol]
[1]
  inhibitory activity against α-glucosidase (in words): remarkably strong inhibitory activities
  IC50: 5e-07 M
[4]
  IC50: 130 µM

## CCCCNC1=N[C@@H]2[C@H](O)[C@@H](O)[C@H](O)[C@]2(CO)O1 [Compound 2-2L, (1S,5R,6S,7R,8S)-1-hydroxymethyl-3-butylamino-2-oxa-4-azabicyclo[3.3.0]oct-3-ene-6,7,8-triol]
[1]
  inhibitory activity against α-glucosidase (in words): remarkably strong inhibitory activities
[4]
  IC50: > 300 µM
[4]; summary of Table 1
  inhibitory activity against β-glucosidase (in words): weak inhibitory activities
[3]; [6]
  pKi: 5.38

## trehasolamine [reference compound]
[1]
  IC50: 0.0005 M
[4]
  IC50: 9.9 µM
[3]; [6]
  pKi: 2.82

## OC[C@]12OC(Nc3ccccc3)=N[C@H]1[C@@H](O)[C@H](O)[C@H]2O [Compound 1-2D, (1R,5S,6R,7S,8R)-1-hydroxymethyl-3-phenylamino-2-oxa-4-azabicyclo[3.3.0]oct-3-ene-6,7,8-triol]
[1]
  IC50: 9.99e-07 M
[4]
  IC50: > 300 µM
[5]
  IC50: > 300 µM
[2]
  pIC50: < 3.52

## CCCCN1C[C@H](O)[C@@H](O)[C@H](O)[C@H]1CO [N-B-DNJ, N-butyldeoxynojirimycin, reference compound]
[1]
  pIC50: 4.10
[3]
  pKi: 5.44

## CCCCN[C@@H]1[C@H](O)[C@@H](O)[C@H](O)[C@@]1(O)CO [d-2, 1L-(1,2,4,5/3)-5-butylamino-1-hydroxymethyl-1,2,3,4-cyclopentanetetraol]
[1]
  inhibitory activity against α-glucosidase (in words): remarkably strong inhibitory activities
  IC50: 1.7e-08 M
[4]
  IC50: 3 µM
